Legend:
Experiment in all cases: Rescue concentration, modified checkerboard MIC adjuvant assay
Format in all cases: cell-based
[1] = system: Streptococcus pneumoniae ATCC 49619; details: S. pneumoniae ATCC 49619
[2] = system: Staphylococcus aureus ATCC BAA-2312; details: S. aureus ATCC BAA-2312
Procedure, shortened: (§1)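 Each well receives bacteria at 10^6 CFU/ml in cation-adjusted Mueller Hinton Broth, a breakpoint concentration of antibiotic, and one step of a twofold compound series. After aerobic incubation at 35° C. for 24 h, growth is scored by eye; rescue concentration reduces MIC to breakpoint.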

[3] = system: Enterococcus faecalis ATCC 51299; details: E. faecalis ATCC 51299
Procedure, shortened: as §1

[4] = system: Klebsiella pneumoniae ATCC BAA-2814; details: K. pneumoniae ATCC BAA-2814
Procedure, shortened: as §1

[5] = system: Klebsiella pneumoniae ATCC 49472; details: K. pneumoniae ATCC 49472
Procedure, shortened: as §1

[6] = system: Stenotrophomonas maltophilia MDR 7785; details: S. maltophilia MDR 7785
Procedure, shortened: as §1

[7] = system: Acinetobacter baumannii clinical isolate 9978; details: A. baumannii clinical isolate 9978
Procedure, shortened: as §1

[8] = system: Escherichia coli ATCC 35150; details: E. coli ATCC 35150
Procedure, shortened: as §1

[9] = Gen at susceptible breakpoint 4 μg mL^−1
[10] = Tri at susceptible breakpoint 8 μg mL^−1
[11] = Amp at susceptible breakpoint 8 μg mL^−1
[12] = Chl at susceptible breakpoint 8 μg mL^−1
[13] = Dox at susceptible breakpoint 4 μg mL^−1
[14] = Amox at susceptible breakpoint 8 μg mL^−1
[15] = Ceph at susceptible breakpoint 8 μg mL^−1
[16] = Col at susceptible breakpoint 8 μg mL^−1
[17] = Imi at susceptible breakpoint 1 μg mL^−1
[18] = Cef at susceptible breakpoint 8 μg mL^−1
[19] = Imi at susceptible breakpoint 2 μg mL^−1
[20] = Mero at susceptible breakpoint 2 μg mL^−1

Oc1ccc(C(c2c[nH]c3cnccc23)c2c[nH]c3cnccc23)cc1 [SP-6azaBIM 136, 4-(bis(1H-pyrrolo[2,3-c]pyridin-3-yl)methyl)phenol]
4 µg/mL: Rescue concentration, Aze (4) ([4]; Aze at susceptible breakpoint 4 μg mL^−1) | Rescue concentration, Dox (4) [4, 13] | Rescue concentration, Gen (4) [4, 9] | Rescue concentration, Imi (1) [4, 17] | Rescue concentration, Tet (4) ([4]; Tet at susceptible breakpoint 4 μg mL^−1) | Rescue concentration, Dox (4) [8, 13] | Rescue concentration, Imi (1) [8, 17]
128 µg/mL: Rescue concentration, Van (2) ([2]; Van at susceptible breakpoint 2 μg mL^−1)
8 µg/mL: Rescue concentration, Cef (16) ([4]; Cef at susceptible breakpoint 16 μg mL^−1) | Rescue concentration, Amp (8) [8, 11]
32 µg/mL: Rescue concentration, Amp (8) [4, 11] | Rescue concentration, Chl (8) [4, 12] | Rescue concentration, Amox (8) [5, 14] | Rescue concentration, Col (8) [5, 16] | Rescue concentration, Mero (1) ([5]; Mero at susceptible breakpoint 1 μg mL^−1) | Rescue concentration, Cef (8) [6, 18] | Rescue concentration, Imi (2) [6, 19] | Rescue concentration, Mero (2) [6, 20] | Rescue concentration, Cef (8) [7, 18] | Rescue concentration, Mero (2) [7, 20]
64 µg/mL: Rescue concentration, Amp (8) [5, 11] | Rescue concentration, Ceph (8) [6, 15] | Rescue concentration, Gen (4) [6, 9] | Rescue concentration, Col (2) ([7]; Col at susceptible breakpoint 2 μg mL^−1) | Rescue concentration, Pol B (2) ([7]; Pol B at susceptible breakpoint 2 μg mL^−1)
>128 µg/mL: Rescue concentration, Amox (2) ([1]; Amox at susceptible breakpoint 2 μg mL^−1) | Rescue concentration, Ery (0.25) ([1]; Ery at susceptible breakpoint 0.25 μg mL^−1) | Rescue concentration, Imi (0.12) ([1]; Imi at susceptible breakpoint 0.12 μg mL^−1) | Rescue concentration, Azi (2) ([2]; Azi at susceptible breakpoint 2 μg mL^−1) | Rescue concentration, Gen (4) [2, 9] | Rescue concentration, Pen (0.12) ([2]; Pen at susceptible breakpoint 0.12 μg mL^−1) | Rescue concentration, Tri (8) [2, 10] | Rescue concentration, Amp (8) [3, 11] | Rescue concentration, Chl (8) [3, 12] | Rescue concentration, Dox (4) [3, 13] | Rescue concentration, Ery (0.5) ([3]; Ery at susceptible breakpoint 0.5 μg mL^−1) | Rescue concentration, Tri (8) [3, 10] | Rescue concentration, Van (4) ([3]; Van at susceptible breakpoint 4 μg mL^−1) | Rescue concentration, Tri (2) ([6]; Tri at susceptible breakpoint 2 μg mL^−1)
2 µg/mL: Rescue concentration, Imi (2) [7, 19]
16 µg/mL: Rescue concentration, Amox (8) [4, 14] | Rescue concentration, Azi (16) ([4]; Azi at susceptible breakpoint 16 μg mL^−1) | Rescue concentration, Ceph (8) [4, 15] | Rescue concentration, Col (8) [4, 16] | Rescue concentration, Imi (1) [5, 17] | Rescue concentration, Pol B (8) ([5]; Pol B at susceptible breakpoint 8 μg mL^−1) | Rescue concentration, Chl (8) [6, 12] | Rescue concentration, Cip (2) ([6]; Cip at susceptible breakpoint 2 μg mL^−1) | Rescue concentration, Amox (8) [7, 14] | Rescue concentration, Gen (4) [7, 9] | Rescue concentration, Cip (0.25) ([8]; Cip at susceptible breakpoint 0.25 μg mL^−1)
